Test results from PubChem BioAssay AID812 (SRMLSC, 2007).
The source made the active and inactive calls. How the calls were made is not given here.

System: Saccharomyces cerevisiae lifespan extension, no nicotinamide
Assay: yeast lifespan extension without nicotinamide, confirmation, yeast lifespan extension project, S. cerevisiae (AID 812);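 further: growth read as optical density after 42 hours of incubation at 30C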

| SMILES | EC50 |
| --- | --- |
| O=C(CCC1CCCC1)c1c(O)c2ccccc2oc1=O | > 40 µM (inactive) |
| CCOC(=O)CS(=O)(=O)c1nc(-c2ccc(F)cc2)cc(C(F)(F)F)n1 | > 40 µM (inactive) |
| CN1C(=O)/C(=C/c2cccn2-c2ccc3ccccc3c2)C(=O)NC1=S | > 40 µM (inactive) |
| CCN1CCCC1CNC(=O)COc1cc(=O)n(C)c2ccccc12 (centres undefined) | > 40 µM (inactive) |
| COc1ccc(OC)c(C2C(C(C)=O)=C(O)C(=O)N2Cc2cccnc2)c1 (centres undefined) | > 40 µM (inactive) |
| CC(C)Cc1nn2c(=O)cc(O)nc2s1 | > 40 µM (inactive) |
| CCSc1ccccc1C(=O)n1nnc2ccccc21 | > 40 µM (inactive) |
| COC(=O)c1sc2ncn(-n3c(C)ccc3C)c(=O)c2c1C | > 40 µM (inactive) |
| CC[n+]1ccc(C[n+]2ccccc2)c2ccccc21 | > 40 µM (inactive) |
| Oc1ccc(NCc2ccccc2OCc2ccccc2F)cc1 | > 40 µM (inactive) |
| O=C1C=CC2C(c3ccc4c(c3)OCO4)CC1N2Cc1ccccc1 (centres undefined) | > 40 µM (inactive) |
| O=C(Nc1scc(-c2cccs2)c1C(=O)O)c1cccs1 | > 40 µM (inactive) |
| Cc1ccc(S(=O)(=O)Nc2ccccc2/C=N/c2nc3ccccc3n2C(C)C)cc1 | > 40 µM (inactive) |
| CC(=C1C(=O)c2ccccc2C1=O)N1CCN(C/C=C/c2ccccc2)CC1 | > 40 µM (inactive) |
| CC1=CN2C(=N)/C(=C/c3ccc([N+](=O)[O-])o3)C(=O)N=C2S1 | > 40 µM (inactive) |
| COc1cc(OC)cc(-c2nc3ccccc3c(=O)n2OC(=O)c2ccc(C)c(C)c2)c1 | > 40 µM (inactive) |
| O=C(NCC1CCCO1)c1c(O)c2ccccc2[nH]c1=O (centres undefined) | > 40 µM (inactive) |
| CCCCCCCC(=O)N/N=C(/C)c1c(O)cc(C)oc1=O | > 40 µM (inactive) |
| Cc1ccc2[nH]c(=O)c(CN(CCO)Cc3nnnn3CCc3ccccc3)cc2c1 | > 40 µM (inactive) |
| COc1ccc(NC(=O)/C(Cl)=C(/Cl)S(=O)Cc2ccc(C)cc2)cn1 (centres undefined) | > 40 µM (inactive) |
| O=C(O)c1c[nH]c(=S)n1-c1ccc(F)cc1 | > 40 µM (inactive) |
| C[C@]12CC[C@@H]3c4ccc(O)cc4CC[C@H]3[C@@H]1CC[C@@H]2OC(=O)CCC(=O)O | > 40 µM (inactive) |
| COc1ccc(/C=N/NC(=O)c2csc(-n3nc(C)cc3C(F)(F)F)n2)cc1 | > 40 µM (inactive) |
| CCC(=NCCc1c(C)[nH]c2ccc(C)cc12)C1=C(O)CC(c2ccccc2)CC1=O (centres undefined) | > 40 µM (inactive) |
| CCc1ccc(C(=O)CN2C(=O)NC(C)(CCc3ccccc3)C2=O)cc1 (centres undefined) | > 40 µM (inactive) |
| O=C(O)Cc1ccc(N=Cc2c(O)ccc3ccccc23)cc1 | > 40 µM (inactive) |
| COc1cccc(CSc2nc3ccccc3cc2C=O)c1 | > 40 µM (inactive) |

| SMILES | EC50 |
| --- | --- |
| CN(C)CC(C(=O)c1ccccc1)c1ccccc1 (centres undefined) | > 40 µM (inactive) |
| Cc1ccc(-c2nc3ccc(Cl)cc3n2OC(=O)N(C)C)cc1 | > 40 µM (inactive) |
| CC(C)C(OC(=O)CN1C(=O)COc2ccccc21)C(=O)NC1CCCC1 (centres undefined) | > 40 µM (inactive) |
| CN(C)C=C1C(=O)N(C2CCCCC2)C(=O)N(C2CCCCC2)C1=O | > 40 µM (inactive) |
| O=C(c1cnn2c(C(F)F)cc(C3CC3)nc12)N1CCCC1 | > 40 µM (inactive) |
| COc1ccc(N(C(=O)C(C)C)S(=O)(=O)c2ccc(Cl)cc2)cc1 | > 40 µM (inactive) |
| Cc1ccc2[nH]c3c(c2c1)CC/C(=C/c1ccccc1)C3=O | > 40 µM (inactive) |
| CC1CCCN(c2nc3ccccc3nc2C(C#N)C(=O)OC2CCCCC2)C1 (centres undefined) | > 40 µM (inactive) |
| O=c1c2c3c(sc2ncn1/N=C/c1ccc([N+](=O)[O-])o1)CCCC3 | > 40 µM (inactive) |
| O=c1c2ccccc2nc(-c2ccc(Cl)c(Cl)c2)n1O | > 40 µM (inactive) |
| CC(C)n1c(-c2ccccc2F)n[nH]c1=S | > 40 µM (inactive) |
| Cc1c(O)c(S(=O)c2ccccc2)c(=O)n(-c2ccccc2)c1-c1ccccc1 (centres undefined) | > 40 µM (inactive) |
| CCCn1[nH]cc(SC)c(=O)c1=O | > 40 µM (inactive) |
| CC(=Nc1ccc2c(c1)nc(CO)n2C)C1=C(O)CC(C)(C)CC1=O | > 40 µM (inactive) |
| CCCC(=Nc1ccccc1OC)C1=C(O)CC(c2ccccc2)CC1=O (centres undefined) | > 40 µM (inactive) |
| CNC(=S)NC1CC2CCCC(C1)N2Cc1ccco1 (centres undefined) | > 40 µM (inactive) |
| O=c1c2ccccc2sn1-c1ccccc1 | > 40 µM (inactive) |
| COc1ccc(CN2CCN(C(=O)COc3cccc(C)c3)CC2)c(OC)c1 | > 40 µM (inactive) |
| CN1C(=O)C(C(=O)Nc2ccccc2F)c2ccccc21 (centres undefined) | > 40 µM (inactive) |
| O=C(COc1ccc([N+](=O)[O-])cc1)N(Cc1ccccc1)Cc1ccccc1 | > 40 µM (inactive) |
| COc1cc(/C=C/C(=O)c2c(O)cc(C)oc2=O)cc(OC)c1O | > 40 µM (inactive) |
| C=CCn1c(C)cc(C(=O)CSc2nc3ccccc3c(=O)[nH]2)c1C | > 40 µM (inactive) |
| CC(=O)Oc1c(C(=O)c2nnc(C)o2)c(=O)n(C)c2ccccc12 | > 40 µM (inactive) |
| O=C(O)c1cccc2c1C(=O)N(C1CCCCC1)C2 | > 40 µM (inactive) |
| CCCCC(CC)Cn1c2nc3ccccc3nc2c2c(=N)oc(C)nc21 (centres undefined) | > 40 µM (inactive) |
| Nc1cccc2c1C(=O)N(C(=O)c1ccc(Cl)c(S(=O)(=O)N3CCCCCC3)c1)C2=O | > 40 µM (inactive) |
| CCOC(=O)c1ccc2c(c1)n(CCO)c(C)[n+]2CC | > 40 µM (inactive) |

| SMILES | EC50 |
| --- | --- |
| Nc1sc(-c2ccccc2)cc1C(=O)O | > 40 µM (inactive) |
| CCOC(=O)c1c(C)oc2c1c(C(c1cccnc1)N1CCOCC1)c(O)c1ccccc12 (centres undefined) | > 40 µM (inactive) |
| N#C/C(=C\c1ccccc1)C(=O)N(c1ccccn1)C1CCCCC1 | > 40 µM (inactive) |
| CC1(C)CC(=O)C(C(=O)Cc2ccccc2[N+](=O)[O-])C(=O)C1 | > 40 µM (inactive) |
| COc1c(Br)cc(Br)cc1/C=N/n1c(C)nnc1C | > 40 µM (inactive) |
| Nn1c(-c2ccccn2)nnc1-c1ccccn1 | > 40 µM (inactive) |
| O=C(NNC1=Nc2cccc3cccc1c23)c1ccccc1Br | > 40 µM (inactive) |
| O=C(Cn1nc(Cl)nc1Cl)c1cc2ccccc2oc1=O | > 40 µM (inactive) |
| CC1(C)CC(=O)c2sc(NS(C)(=O)=O)nc2C1 | > 40 µM (inactive) |
| CN1OC(c2ccccc2)=C(CO)C1c1ccccc1 (centres undefined) | > 40 µM (inactive) |
| CCCNC(=O)CCC(NS(=O)(=O)c1ccc(C)cc1)C(=O)NCCC (centres undefined) | > 40 µM (inactive) |
| COc1ccc(OC)c(NC(=S)N2CCN(C/C=C/c3ccccc3)CC2)c1 | > 40 µM (inactive) |
| COc1ccccc1C(=O)Oc1ccc2c(c1)O/C(=C\c1ccncc1)C2=O | > 40 µM (inactive) |
| COc1ccccc1C(=O)Oc1cc(N)n(S(=O)(=O)c2ccc(C)cc2)n1 | > 40 µM (inactive) |
| O=C(NCc1ccco1)c1c(O)c2cccc3c2n(c1=O)CCC3 | > 40 µM (inactive) |
| Cc1ccc(/C=C2/C(=O)NC(=O)N(CCc3ccc(F)cc3)C2=O)o1 | > 40 µM (inactive) |
| C=C1C(=O)C=C2CN(C(=O)c3ccccc3)[C@@](Cc3ccc(F)cc3)(C(=O)OC)[C@@H]12 | > 40 µM (inactive) |
| CCc1nnc(NC(=O)c2cccc(S(=O)(=O)N(C)c3ccccc3)c2)s1 | > 40 µM (inactive) |
| Cc1cc(C)nc(SCc2cc(=O)c(OC(=O)c3ccco3)co2)n1 | > 40 µM (inactive) |
| CCCn1c(SCC(=O)c2ccc3c(c2)NC(=O)CO3)nc2ccccc21 | > 40 µM (inactive) |
| COc1ccc(NC(=S)N2CCN(CCN=CC3=C(O)CC(c4ccccc4)CC3=O)CC2)cc1 (centres undefined) | > 40 µM (inactive) |
| Cc1cccc(NC(=O)c2c(O)c3cccc4c3n(c2=O)CCC4)n1 | > 40 µM (inactive) |
| Cc1cc(N2C(=O)CC(Cc3ccccc3)C2=O)no1 (centres undefined) | > 40 µM (inactive) |
| O=C(Oc1ccc([N+](=O)[O-])cc1)c1ccc2ccccc2n1 | > 40 µM (inactive) |
| CCCCCn1c(=O)c(C(=O)NCc2ccccn2)c(O)c2ccccc21 | > 40 µM (inactive) |
